In US20110166121A1 (LG LIFE SCIENCES LTD., priority 2008, published 2011) one finds Ki and IC50 data, which are given here for 23 molecules.

SMILES strings stand for the structures. Structures can show the parent of a compound that is named as a salt.

In one test the test system is Human platelet aggregation caused by ADP. Kind of test: Inhibition of ADP-induced platelet aggregation (Mimic-human PRP). Conditions: 20 μM ADP, human platelet concentrate diluted with PPP, absorption at 595 nm. It counts as cell-based. In short, it runs like this: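 Ki came from non-linear sigmoidal fits of inhibition, measured as the 3-min rise in absorbance at 595 nm after 20 μM ADP, relative to 0/20 μM ADP controls. Platelets (3–4×10^8/mL in PPP-diluted human PRP) were exposed to 0.01–30 μM compound for 20 min at room temperature beforehand.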
For the molecule `CCCc1cc2c(N3CCn4c(nnc4C(F)(F)F)C3)nc(N3CC(O)C(NC(=O)C(C)(C)CO)C3)nc2s1` (centres unmarked) [Example 7-25, 3-Hydroxy-N-{4-hydroxy-1-[6-propyl-4-(3-trifluoromethyl-5,6-dihydro-8H-[1,2,4]triazolo[4,3-a]pyrazin-7-yl)-thieno[2,3-d]pyrimidin-2-yl]-pyrrolidin-3-yl}-2,2-dimethyl-propionamide], the Ki was 18 nM.

Consider `CCCc1cc2c(N3CCn4c(nnc4C(F)(F)F)C3)nc(N3CC[C@H](N(C)C(C)=O)C3)nc2s1` [Example 9-24, N-Methyl-N-{(S)-1-[6-propyl-4-(3-trifluoromethyl-5,6-dihydro-8H-[1,2,4]triazolo[4,3-a]pyrazin-7-yl)-thieno[2,3-d]pyrimidin-2-yl]-pyrrolidin-3-yl}-acetamide], for which the affinity, expressed as Ki, was 310 nM.

As to `CCCc1cc2c(N3CCn4c(nnc4C(F)(F)F)C3)nc(OC[C@H]3CCN(C(=O)C(C)C)C3)nc2s1` [Example 8-39, 2-Methyl-1-{(S)-3-[6-propyl-4-(3-trifluoromethyl-5,6-dihydro-8H-[1,2,4]triazolo[4,3-a]pyrazin-7-yl)-thieno[2,3-d]pyrimidin-2-yloxymethyl]-pyrrolidin-1-yl}-propan-1-one], the affinity corresponds to a Ki of 76 nM. This Ki is about 4.1-fold lower than that of the molecule before.

For the molecule `CCCc1cc2c(N3CCn4c(nnc4C(F)(F)F)C3)nc(OCCNC(=O)CO)nc2s1` [Example 3-60, 2-Hydroxy-N-{2-[6-propyl-4-(3-trifluoromethyl-5,6-dihydro-8H-[1,2,4]triazolo[4,3-a]pyrazin-7-yl)-thieno[2,3-d]pyrimidin-2-yloxy]-ethyl}-acetamide], the Ki was found to be 0.7 nM.

`CCCc1cc2c(N3CCn4c(nnc4C(F)(F)F)C3)nc(OCCF)nc2s1` [Example 9-83, 7-[2-(2-Fluoro-ethoxy)-6-propyl-thieno[2,3-d]pyrimidin-4-yl]-3-trifluoromethyl-5,6,7,8-tetrahydro-[1,2,4]triazolo[4,3-a]pyrazine]: the Ki turned out to be 0.3 nM. This Ki is about 2.3-fold lower than that of the molecule before.

Turning to `CCCc1cc2c(N3CCn4c(nnc4C(F)(F)F)C3)nc(N3CC[C@H](NC(=O)COC)C3)nc2s1` [Example 1-102, 2-Methoxy-N-{(S)-1-[6-propyl-4-(3-trifluoromethyl-5,6-dihydro-8H-[1,2,4]triazolo[4,3-a]pyrazin-7-yl)-thieno[2,3-d]pyrimidin-2-yl]-pyrrolidin-3-yl}-acetamide], affinity was put at a Ki of 8.6 nM. This Ki lies about 29-fold higher than the previous one.

For `CCCc1cc2c(N3CCn4c(nnc4C(F)(F)F)C3)nc(N3CC[C@@H](CNC(=O)C(C)C)C3)nc2s1` [Example 8-3, N-{(S)-1-[6-Propyl-4-(3-trifluoromethyl-5,6-dihydro-8H-[1,2,4]triazolo[4,3-a]pyrazin-7-yl)-thieno[2,3-d]pyrimidin-2-yl]-pyrrolidin-3-ylmethyl}-isobutyramide], affinity was put at a Ki of 330 nM. Compared with the last molecule, the Ki is about 38-fold higher.

Turning to `CCCc1cc2c(N3CCn4c(nnc4C(F)(F)F)C3)nc(N3CC[C@@H](CNC(C)=O)C3)nc2s1` [Example 8-1, N-{(S)-1-[6-Propyl-4-(3-trifluoromethyl-5,6-dihydro-8H-[1,2,4]triazolo[4,3-a]pyrazin-7-yl)-thieno[2,3-d]pyrimidin-2-yl]-pyrrolidin-3-ylmethyl}-acetamide], the Ki was 35 nM.

`CCCc1cc2c(N3CCn4c(nnc4C(F)(F)F)C3)nc(OC)nc2s1` [Example 9-35, 7-(2-Methoxy-6-propyl-thieno[2,3-d]pyrimidin-4-yl)-3-trifluoromethyl-5,6,7,8-tetrahydro-[1,2,4]triazolo[4,3-a]pyrazine] showed a Ki of 220 nM.

`CCCc1cc2c(N3CCn4c(nnc4C(F)(F)F)C3)nc(N3CCC(NC(=O)C(C)C)CC3)nc2s1` [Example 7-14, Hydrochloric acid salt of N-{1-[6-Propyl-4-(3-trifluoromethyl-5,6-dihydro-8H-[1,2,4]triazolo[4,3-a]pyrazin-7-yl)-thieno[2,3-d]pyrimidin-2-yl]-piperidin-4-yl}-isobutyramide] yielded a Ki of 120 nM.

Turning to `CCCc1cc2c(N3CCn4c(nnc4C(F)(F)F)C3)nc(N3CC(O)C(NC(=O)OC)C3)nc2s1` (centres unmarked) [Example 9-2, {4-Hydroxy-1-[6-propyl-4-(3-trifluoromethyl-5,6-dihydro-8H-[1,2,4]triazolo[4,3-a]pyrazin-7-yl)-thieno[2,3-d]pyrimidin-2-yl]-pyrrolidin-3-yl}-carbamic acid methyl ester], the affinity, expressed as Ki, was 8 nM. Against the preceding molecule, the Ki is about 15-fold lower.

Turning to `CCCc1cc2c(N3CCn4c(nnc4C(F)(F)F)C3)nc(N3CC[C@H](NC(=O)NC4CCCC4)C3)nc2s1` [Example 9-15, 1-Cyclopentyl-3-{(S)-1-[6-propyl-4-(3-trifluoromethyl-5,6-dihydro-8H-[1,2,4]triazolo[4,3-a]pyrazin-7-yl)-thieno[2,3-d]pyrimidin-2-yl]-pyrrolidin-3-yl}-urea], affinity was put at a Ki of 42 nM. This Ki is about 5.2-fold higher than that of the molecule before.

`CCCc1cc2c(N3CCn4c(nnc4C(F)(F)F)C3)nc(-n3ccc(NC(C)=O)n3)nc2s1` [Example 9-54, N-{1-[6-Propyl-4-(3-trifluoromethyl-5,6-dihydro-8H-[1,2,4]triazolo[4,3-a]pyrazin-7-yl)-thieno[2,3-d]pyrimidin-2-yl]-1H-pyrazol-3-yl}-acetamide]: the Ki turned out to be 130 nM. This Ki is about 3.1-fold higher than that of the molecule before.

As to `CCCC(=O)N1CC[C@H](COc2nc(N3CCn4c(nnc4C(F)(F)F)C3)c3cc(CCC)sc3n2)C1` [Example 8-38, 1-{(S)-3-[6-Propyl-4-(3-trifluoromethyl-5,6-dihydro-8H-[1,2,4]triazolo[4,3-a]pyrazin-7-yl)-thieno[2,3-d]pyrimidin-2-yloxymethyl]-pyrrolidin-1-yl}-butan-1-one], the Ki was found to be 110 nM.

In turn, `CCCc1cc2c(N3CCn4c(nnc4C(F)(F)F)C3)nc(OCCC#N)nc2s1` [Example 9-71, 3-[6-Propyl-4-(3-trifluoromethyl-5,6-dihydro-8H-[1,2,4]triazolo[4,3-a]pyrazin-7-yl)-thieno[2,3-d]pyrimidin-2-yloxy]-propionitrile] gave a Ki of 0.7 nM.

`CCCc1cc2c(N3CCn4c(nnc4C(F)(F)F)C3)nc(OC(C)CNC(C)=O)nc2s1` (centres unmarked) [Example 9-76, N-{2-[6-Propyl-4-(3-trifluoromethyl-5,6-dihydro-8H-[1,2,4]triazolo[4,3-a]pyrazin-7-yl)-thieno[2,3-d]pyrimidin-2-yloxy]-propyl}-acetamide] gave a Ki of 22 nM.

In turn, `CCCc1cc2c(N3CCn4c(nnc4C(F)(F)F)C3)nc(N(C)CCNC(=O)OC)nc2s1` [Example 9-42, (2-{Methyl-[6-propyl-4-(3-trifluoromethyl-5,6-dihydro-8H-[1,2,4]triazolo[4,3-a]pyrazin-7-yl)-thieno[2,3-d]pyrimidin-2-yl]-amino}-ethyl)-carbamic acid methyl ester] gave a Ki of 27 nM.

For another test, the target named is T1, Human P2Y12 receptor (Homo sapiens, UniProt Q9H244).
T1 construct: expressed in transfected cells; host or cells: HEK cells
T1 sequence (Q9H244 whole entry): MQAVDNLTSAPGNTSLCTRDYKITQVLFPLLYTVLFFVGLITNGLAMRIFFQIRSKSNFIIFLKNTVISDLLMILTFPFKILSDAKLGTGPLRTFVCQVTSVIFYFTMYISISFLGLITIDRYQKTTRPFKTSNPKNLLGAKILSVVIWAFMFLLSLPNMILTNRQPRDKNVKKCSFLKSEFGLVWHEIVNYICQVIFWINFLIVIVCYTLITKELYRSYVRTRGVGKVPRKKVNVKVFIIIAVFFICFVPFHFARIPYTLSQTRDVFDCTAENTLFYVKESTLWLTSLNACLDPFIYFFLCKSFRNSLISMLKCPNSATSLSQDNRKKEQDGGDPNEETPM
The test is described as follows: Human P2Y12 receptor cell membrane binding assay with [3H] 2-Mes-ADP. The conditions noted are these: 1 nM [3H] 2-Mes-ADP, membranes of HEK cells expressing P2Y12 receptor; read-out: Binding activity (IC50). On the procedure: Human P2Y12 Receptor Cell Membrane Binding Assay with [^3H] 2-Mes-ADP
Whether test compounds bind to P2Y12 receptor is measured by [3H]-2MesADP binding in HEK cells expressing P2Y12 receptor. The efficacy according to the amount of test compound can be known through the above test, competitive binding test to P2Y12 receptor, in which the binding material (2-Mes-ADP) is labeled with radioactivity isotope and then the extent of inhibition against the binding of radioactively labeled material is measured.
Preparation of P2Y12 Membrane Protein Fraction
Harvested P2Y12 cells were resuspended with Hypotonic buffer (10 mM HEPES, 10 mM NaCl, 1 mM EDTA, 1 mM EGTA pH 7.4) containing protease inhibitor cocktail. Following the incubation on ice for 15 min, cells were homogenized on ice (Glass/Teflon homogenizer; 1,000 rpm, 10 strokes). The supernant was taken from centrifugation at 500×g for 15 min and then recentrifuged the supernant at 30,000 rpm for 30 min. The membrane pellet was adjusted to 1 mg/mL concentration and stored at −80° C.
P2Y12 Receptor Cell Membrane Binding Assay with [3H] 2-Mes-ADP
The volume of 100 μL of 200 μg membrane protein was aliquoted into 96 well plate. 50 μL volume of test compounds and [^3H] 2-Mes-ADP (final: 1 nM) were added into each well. The total reaction of 0.2 ml/well was incubated for 1 hour at R.T. The reaction was terminated by filtration through GF/B filter using a 96-well cell harvester. […] Radioactivity bound to P2Y12 receptor membrane was counted in a scintillation counter. Total binding was determined with CPM of test group having no compound and non-specific binding was determined with CPM of test group containing 10 μM 2-Mes-ADP. Binding inhibition percent was calculated as follows: [100−(specific binding in the presence of test material/specific binding in the absence of test material×100)].
Regarding `CCCc1cc2c(N3CCn4c(nnc4C(F)(F)F)C3)nc(N3CCc4[nH]ncc4C3)nc2s1` [Example 1-76, 7-[6-Propyl-2-(1,4,6,7-tetrahydro-pyrazolo[4,3-c]pyridin-5-yl)-thieno[2,3-d]pyrimidin-4-yl]-3-trifluoromethyl-5,6,7,8-tetrahydro-[1,2,4]triazolo[4,3-a]pyrazine], the IC50 amounted to 28 nM.

Consider `CCc1cc2c(N3CCc4c([nH]c5ccccc45)C3)nc(N3CCNC(=O)C3)nc2s1` [Example 6-29, 4-[6-Ethyl-4-(1,3,4,9-tetrahydro-beta-carbolin-2-yl)-thieno[2,3-d]pyrimidin-2-yl]-piperazin-2-one], for which the IC50 came to 29800 nM.

On to `CC(C)c1cc2c(N3CCn4c(nnc4C(F)(F)F)C3)nc(N3CCN(C)CC3)nc2s1` [Example 2-13, 7-[6-Isopropyl-2-(4-methyl-piperazin-1-yl)-thieno[2,3-d]pyrimidin-4-yl]-3-trifluoromethyl-5,6,7,8-tetrahydro-[1,2,4]triazolo[4,3-a]pyrazine], for which the IC50 turned out to be 1100 nM.

Take `CCc1cc2c(N3CCn4cnnc4C3)nc(N3CCNC(=O)C3)nc2s1` [Example 6-10, 4-[4-(5,6-Dihydro-8H-[1,2,4]triazolo[4,3-a]pyrazin-7-yl)-6-ethyl-thieno[2,3-d]pyrimidin-2-yl]-piperazin-2-one]: the IC50 came to 7000 nM.

Consider `CCc1cc2c(N3CCc4c(nc(-c5ccccc5)nc4C(F)(F)F)C3)nc(N3CCNC(=O)C3)nc2s1` [Example 6-37, 4-[6-Ethyl-4-(2-phenyl-4-trifluoromethyl-5,8-dihydro-6H-pyrido[3,4-d]pyrimidin-7-yl)-thieno[2,3-d]pyrimidin-2-yl]-piperazin-2-one], for which the IC50 came out at 400 nM.

On to `CCc1cc2c(N3CCc4c(nc(C(F)(F)F)nc4C(F)(F)F)C3)nc(N3CCNC(=O)C3)nc2s1` [Example 6-31, 4-[4-(2,4-Bis-trifluoromethyl-5,8-dihydro-6H-pyrido[3,4-d]pyrimidin-7-yl)-6-ethyl-thieno[2,3-d]pyrimidin-2-yl]-piperazin-2-one], for which the IC50 was 4660 nM.
